Reference: ChEMBL document CHEMBL3769386, “Targeting microsomal prostaglandin E2synthase-1 (mPGES-1): the development of inhibitors as an alternative to non-steroidal anti-inflammatory drugs (NSAIDs)” (Medchemcomm, 2015)
Blank lines part the entries; values can stand above or below the compound they belong to.

Assays:
Prostaglandin E synthase [1] = molecular target: T1, Prostaglandin E synthase (Homo sapiens, UniProt O14684); test: Inhibition of microsomal PGES1 in ILbeta-stimulated human A549 cells using PGH2 as substrate preincubated for 15 mins followed by substrate addition measured after 1 min by RP-HPLC analysis; type: cell-based
T1 sequence (O14684 whole entry): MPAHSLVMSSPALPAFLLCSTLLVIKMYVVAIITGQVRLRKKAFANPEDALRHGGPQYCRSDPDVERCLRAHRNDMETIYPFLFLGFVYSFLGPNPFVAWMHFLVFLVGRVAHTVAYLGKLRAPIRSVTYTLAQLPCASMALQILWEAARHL

Prostaglandin E synthase [2] = molecular target: T1, Prostaglandin E synthase; test: Inhibition of recombinant human microsomal PGES1 using PGH2 as substrate preincubated for 15 mins followed by substrate addition measured after 5 mins by enzyme immunoassay
[3] = molecular target: T2, Polyunsaturated fatty acid 5-lipoxygenase (Homo sapiens, UniProt P09917); test: Inhibition of 5-lipooxygenase (unknown origin)
T2 sequence (P09917 whole entry): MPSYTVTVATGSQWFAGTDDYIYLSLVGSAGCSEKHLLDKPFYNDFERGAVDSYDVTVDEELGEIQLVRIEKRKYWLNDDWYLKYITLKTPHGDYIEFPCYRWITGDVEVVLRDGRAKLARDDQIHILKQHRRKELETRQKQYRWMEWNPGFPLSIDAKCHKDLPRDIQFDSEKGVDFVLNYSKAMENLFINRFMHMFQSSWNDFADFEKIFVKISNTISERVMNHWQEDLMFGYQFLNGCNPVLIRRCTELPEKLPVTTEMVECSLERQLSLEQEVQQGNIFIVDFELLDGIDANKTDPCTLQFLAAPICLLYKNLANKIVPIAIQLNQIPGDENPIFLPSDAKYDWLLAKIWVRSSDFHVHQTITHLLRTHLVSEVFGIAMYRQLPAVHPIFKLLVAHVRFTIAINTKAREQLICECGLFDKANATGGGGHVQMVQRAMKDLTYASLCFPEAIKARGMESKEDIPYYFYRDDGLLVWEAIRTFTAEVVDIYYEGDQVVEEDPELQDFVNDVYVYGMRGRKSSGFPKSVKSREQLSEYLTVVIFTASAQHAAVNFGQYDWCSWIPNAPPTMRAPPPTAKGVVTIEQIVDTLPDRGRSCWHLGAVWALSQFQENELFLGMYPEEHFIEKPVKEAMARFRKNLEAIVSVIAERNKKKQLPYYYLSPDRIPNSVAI

Prostaglandin E synthase [4] = molecular target: T1, Prostaglandin E synthase; test: Inhibition of microsomal PGES1 (unknown origin)
[5] = molecular target: T3, Prostaglandin G/H synthase 2 (Homo sapiens, UniProt P35354); test: Inhibition of COX2 in IL1beta-induced human A549 cells using arachidonic acid as substrate assessed as 6-keto PGF1a formation preincubated for 10 mins followed by substrate addition measured after 30 mins by enzyme immunoassay; type: cell-based
T3 sequence (P35354 whole entry): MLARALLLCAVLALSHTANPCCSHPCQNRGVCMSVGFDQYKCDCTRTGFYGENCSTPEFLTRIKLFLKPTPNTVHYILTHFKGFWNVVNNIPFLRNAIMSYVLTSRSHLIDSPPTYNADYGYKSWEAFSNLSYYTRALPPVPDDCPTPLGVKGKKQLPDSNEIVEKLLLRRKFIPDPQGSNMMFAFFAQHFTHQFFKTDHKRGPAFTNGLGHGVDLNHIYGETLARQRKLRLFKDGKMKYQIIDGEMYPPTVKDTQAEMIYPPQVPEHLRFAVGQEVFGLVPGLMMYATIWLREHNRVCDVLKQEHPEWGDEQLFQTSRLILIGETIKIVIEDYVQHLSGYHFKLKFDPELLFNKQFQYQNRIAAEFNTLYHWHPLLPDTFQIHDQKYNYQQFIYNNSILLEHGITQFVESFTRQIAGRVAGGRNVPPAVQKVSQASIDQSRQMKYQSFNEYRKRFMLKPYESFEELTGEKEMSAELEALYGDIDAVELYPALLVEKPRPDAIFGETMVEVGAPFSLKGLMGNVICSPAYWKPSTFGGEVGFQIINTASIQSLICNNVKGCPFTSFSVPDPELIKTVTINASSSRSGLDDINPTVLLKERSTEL

[6] = Inhibition of recombinant rat microsomal PGES1 using PGH2 as substrate incubated for 90 secs by MDA-TBA assay
Prostaglandin E synthase [7] = molecular target: T1, Prostaglandin E synthase; test: Inhibition of human microsomal PGES1 using PGH2 as substrate incubated for 90 secs by MDA-TBA assay
[8] = molecular target: T4, Prostaglandin E synthase (Mus musculus) (UniProt Q9JM51); test: Inhibition of microsomal PGES1 in mouse J774 cells assessed as reduction of LPS-induced PGE2 production inhibition at 100 uM by radioimmuno assay in presence of radio labelled PGE2; type: cell-based
T4 sequence (whole entry): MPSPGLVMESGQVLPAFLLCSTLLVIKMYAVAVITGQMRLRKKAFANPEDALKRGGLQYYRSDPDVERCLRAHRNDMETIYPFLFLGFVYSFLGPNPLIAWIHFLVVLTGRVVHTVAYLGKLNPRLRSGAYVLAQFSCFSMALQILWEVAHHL

Prostaglandin E synthase [9] = molecular target: T1, Prostaglandin E synthase; test: Inhibition of human microsomal PGES1 using PGH2 as substrate incubated after 75 secs by MDA-TBA assay
[10] = Inhibition of recombinant rat microsomal PGES1 using PGH2 as substrate after 75 secs by MDA-TBA assay
Prostaglandin E synthase [11] = molecular target: T1, Prostaglandin E synthase; test: Inhibition of microsomal PGES1 in ILbeta/TNFalpha-stimulated human A549 cells using PGH2 as substrate preincubated for 15 mins followed by substrate addition measured after 1 min by LC-MS/MS analysis; type: cell-based
[12] = molecular target: Prostaglandin G/H synthase 1 (Homo sapiens, UniProt P23219); test: Inhibition of COX1 (unknown origin)
Chain of Prostaglandin G/H synthase 1 (P23219 whole entry): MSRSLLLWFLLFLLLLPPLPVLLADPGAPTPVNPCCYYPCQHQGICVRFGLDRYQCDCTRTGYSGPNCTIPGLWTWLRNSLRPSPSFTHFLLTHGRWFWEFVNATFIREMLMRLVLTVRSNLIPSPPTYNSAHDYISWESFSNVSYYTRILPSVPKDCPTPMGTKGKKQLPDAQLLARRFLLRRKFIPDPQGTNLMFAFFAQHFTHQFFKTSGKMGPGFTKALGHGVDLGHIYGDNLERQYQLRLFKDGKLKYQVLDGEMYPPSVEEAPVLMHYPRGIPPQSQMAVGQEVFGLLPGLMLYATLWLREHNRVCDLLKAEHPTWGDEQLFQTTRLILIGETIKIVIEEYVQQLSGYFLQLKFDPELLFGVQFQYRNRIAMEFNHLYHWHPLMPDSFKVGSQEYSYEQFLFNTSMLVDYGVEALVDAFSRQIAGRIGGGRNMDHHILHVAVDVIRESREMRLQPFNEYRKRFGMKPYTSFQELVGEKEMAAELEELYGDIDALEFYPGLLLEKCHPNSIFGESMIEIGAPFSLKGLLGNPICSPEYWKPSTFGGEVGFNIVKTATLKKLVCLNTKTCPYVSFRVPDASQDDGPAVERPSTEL

Compound: CC(C)c1cc2c(c(O)c1O)[C@@]1(C(=O)O)CCCC(C)(C)[C@@H]1CC2 [CARNOSIC ACID]
IC50 (Prostaglandin E synthase [1]): 5000 nM

Compound: O=C(Nc1ccc2c(c1)c1ccccc1n2CCO)c1ccccc1C(F)(F)F
IC50 (Prostaglandin E synthase [2]): 900 nM

Compound: Cc1c(CC(C)(C)C(=O)O)n(Cc2ccc(Cl)cc2)c2cc(F)c(-c3ccccc3Cl)cc12
IC50 (Prostaglandin E synthase [4]; read-out: pIC50 (converted)): 5.01 nM

Compound: CC(C)c1cc2c(c(O)c1O)[C@@]13CCCC(C)(C)[C@@H]1C[C@@H]2OC3=O [CARNOSOL]
IC50 (Prostaglandin E synthase [1]): 5000 nM

Compound: CCc1oc(=O)c(Cc2c(O)c(CC=C(C)C)c(O)c(C(C)=O)c2O)c(O)c1C [ARZANOL]
IC50 [5]: ≥ 30000 nM

Compound: Cc1cc2nc(N3CCC(C(=O)NC4CCCC4)CC3)n(C(C)C)c2cc1C
IC50 [6]: 900 nM | IC50 (Prostaglandin E synthase [7]): 90 nM

Compound: O=C(Nc1cccc2ccccc12)c1cccc(NC(=O)c2ccccc2Cl)c1
IC50 (Prostaglandin E synthase [4]; read-out: IC50): 200 nM

Compound: CC1=NN(C(N)=S)C(=O)/C1=N/Nc1cccc(Br)c1
IC50 (Prostaglandin E synthase [9]): 1800 nM | IC50 [10]: 620 nM

Compound: Cc1ccc(C)c(-c2cc(C(F)(F)F)nn2-c2ccc(S(N)(=O)=O)cc2)c1 [DIMETHYL CELECOXIB]
IC50 (Prostaglandin E synthase [4]; read-out: IC50): 600 nM

Compound: COc1cc(C(=O)NS(=O)(=O)c2ccccc2C)ccc1Cc1cn(C)c2ccc(NC(=O)OC3CCCC3)cc12 [ZAFIRLUKAST]
IC50 (Prostaglandin E synthase [11]): 18100 nM

Compound: COc1cc(/C=C/C(=O)CC(=O)/C=C/c2ccc(O)c(OC)c2)ccc1O [CURCUMIN]
IC50 (Prostaglandin E synthase [1]): 200 nM

Compound: CC(=O)c1ccccc1-c1cc2c(C)c(CC(C)(C)C(=O)O)n(Cc3ccc(Cl)cc3)c2cc1F
IC50 (Prostaglandin E synthase [4]; read-out: pIC50 (converted)): 3.98 nM

Compound: COc1ccccc1-c1cc2c(C)c(CC(C)(C)C(=O)O)n(Cc3ccc(Cl)cc3)c2cc1F
IC50 (Prostaglandin E synthase [4]; read-out: pIC50 (converted)): 6.92 nM

More lines, now with the values ahead:

IC50 [3]: 2000 nM
Compound: CCCCCCC(Sc1nc(Cl)cc(Nc2cccc(C)c2C)n1)C(=O)O (stereo unspecified)

inhibition [8]: 93.1%
Compound: O=C1c2c(O)cc(O)cc2OC(c2ccc(O)cc2)C1O (stereo unspecified)

IC50 (Prostaglandin E synthase [1]): 1000 nM
Compound: CC(=O)c1c(O)c(CC=C(C)C)c(O)c(C(c2ccccc2)c2c(O)cc(C)oc2=O)c1O (stereo unspecified)

IC50 (Prostaglandin E synthase [1]): 800 nM
Compound: CCc1oc(=O)c(C(c2ccccc2)c2c(O)c(CC=C(C)C)c(O)c(C(C)=O)c2O)c(O)c1C (stereo unspecified)

inhibition [8]: 94.3%
Compound: COc1cc(O)ccc1C1Oc2cc(O)cc(O)c2C(=O)C1O (stereo unspecified)

IC50 (Prostaglandin E synthase [1]): 1150 nM | IC50 [12]: > 30000 nM
Compound: CCCCCC(=O)Cc1cc(O)cc(O)c1C(=O)Oc1cc(O)c(C(=O)O)c(CCCCC)c1

IC50 (Prostaglandin E synthase [1]): 400 nM | IC50 [12]: > 30000 nM
Compound: CCCCCc1cc(OC(=O)c2c(O)cc(O)cc2CCCCC)cc(O)c1C(=O)O

IC50 (Prostaglandin E synthase [1]): 430 nM | IC50 [12]: > 30000 nM
Compound: CCCCCC(=O)Cc1cc(O)cc2c1C(=O)Oc1cc(O)c(C(=O)O)c(CCCCC)c1O2 [PHYSODIC ACID]
